Experimental data from patent US20200255884A1, “METHOD OF DETECTION OF DNA END(S) AND ITS USE” (INTODNA SP. Z O.O., priority 2017, published 2020).

Columns and labels:
HeLa 21-4 cells [1] = assay: DNA ends detection in fixed HeLa cells subjected to damaging agents (H2O2, Tpt), Procedure 1; assay type: cell-based; details: 30 min at 37 °C, H2O2 4 mM, Tpt 20 μM
Procedure: Procedure: • 1. Pre-preparation (optional): • Incubation of live cells with 0.5-10 mM Tris (5 min-1 h at room temperature (RT)), cells should be monitored for morphological abnormalities. • 2. Fixation and permeabilization: • a. Incubation with 1%-4% formaldehyde solution, 10-15 min, 4° C. (optional) • b. Incubation with an […] detergent (e.g. Triton X-100 (0.25-3%) 10 min-1 h, RT. (optional) • c. Incubation in 70% ethanol in water, 1 h minimum but preferred 12-18 h, −20° C., sample should be stable for several months. (optional but most preferred) • 3. Pre-blocking (optional): • a. Wash (PBS 1×5 min) • b. Streptavidin solution—incubation performed on a droplet, 30 min, RT • c. Wash (PBS 3×5 min) • d. Biotin solution—incubation performed on a droplet, 30 min, RT • e. Wash (PBS 3×5 min) • 4. Increasing accessibility of DNA ends: • Incubation with 0.5-10 mM EDTA in water, 10 min-1 h, RT. • 5. Incorporation procedure: • Incorporation of unmodified and modified nucleotides (e.g. BrdU) using terminal deoxynucleotidyl transferase: • a. incubation is performed on a droplet in a humid chamber • b. samples are rinsed in wash buffers • 6. Blocking: • Incubation with 1-5% BSA solution in PBS (from 1 h to overnight in 4° C., RT). • 7. Incubation with primary antibodies—performed on a droplet in a humid chamber: • a. primary antibodies type 1 (e.g. mouse monoclonal against BrdU), preferred dilution 1:100 in 1-5% BSA, 1 h, RT • b. wash (PBS 3×5 min) • c. primary antibodies type 2 (e.g. rabbit polyclonal against BrdU), preferred dilution 1:100 in 1-5% BSA, 1 h, RT • d. wash (PBS 3×5 min) • 8. PLA procedure: • a. incubation with PLA Probes diluted in 1% BSA (37° C., 60 min, reaction on a droplet, in a humid chamber) in 40 μl of the reaction mixture per one coverslip: • 8 μl of PLA Probe MINUS stock (e.g. anti-mouse) • 8 μl of PLA Probe PLUS stock (e.g. anti-rabbit) • 24 μl of 1% BSA • b. wash samples with Wash Buffer A (2×5 min) • c. ligation—incubation (37° C., 30 min, reaction on a droplet, in a humid chamber) in 40 μl of the reaction mixture per one coverslip: • 8 μl of 5× Ligation stock (Sigma, Duolink, DUO82009), • 31 μl of ultrapure, RNAse/DNAse free, distilled water, • 1 μl of Ligase (1 U/μl) (Sigma, Duolink, DUO82027 or DUO82029) • d. wash samples with Wash Buffer A (2×2 min) • e. amplification—incubation (37° C., 100 min, reaction performed on a droplet, in a humid chamber) in 40 μl of the reaction mixture per one coverslip: • 8 μl of 5× Amplification stock (Sigma, Duolink, DUO82060 or DUO82011), • 31.5 μl of ultrapure, RNAse/DNAse free, distilled water, • 0.5 μl of Polymerase (10 U/μl) (Sigma, Duolink, DUO82028 or DUO82030) • 9. Imaging of samples in PBS using a fluorescence microscope. […]

HeLa 21-4 cells [2] = assay: Detection of DNA breaks induced by photodynamic effect (ethidium bromide + 488 nm laser) in HeLa cells, Procedure 1; assay type: cell-based; details: ethidium bromide (500 μM) 10 min, dose 9 mJ
Procedure: In this experiment the DNA breaks were induced by treating live cells (HeLa 21-4 cells, obtained from prof. P.R. Cook, Oxford University) with ethidium bromide (500 μM) for 10 min and then parking the laser beam (488 nm) at a chosen place inside the nucleus (dose: 9 mJ) 2 minutes after illumination step 2 of Procedure 1 was performed. The aim of the experiment was to directly detect DNA break (s) inflicted at a specific area of the cell nucleus by a photodynamic effect.
HeLa 21-4 cells were first seeded on 18-mm coverslips and cultured for 3 days in DMEM supplemented with 10% FBS. After culturing, DNA damage was induced in chosen cells, as described previously, followed by incubation in 70% ethanol in water, 15 h, −20° C. After that, increasing of accessibility of DNA ends (step 4) was performed with 10 mM EDTA in water, 1 h, RT. Incorporation of modified (BrdUTP) nucleotides (Phoenix Flow Systems) by terminal deoxynucleotidyl transferase was performed according to the kit supplier's instructions (APO-BRDU kit, Phoenix Flow Systems). The cells were then incubated with 1% BSA solution in PBS (overnight in 4° C.). The incubation with primary antibodies type 1 and 2 according to step 7 of Procedure 2 were performed using mouse monoclonal anti-BrdU (Abcam, ab8039) and rabbit polyclonal anti-BrdU (Abcam, ab152095) (1:100 in 1% BSA), respectively. […]

| Compound | percentage of cells that show signs of heavy DNA damage (apoptotic cells) in the population (HeLa 21-4 cells [1]; untreated less than 5%) | average number of detectable regions of incorporation of BrdU (free ends of DNA) per cell (HeLa 21-4 cells [1]; ± standard error of the mean) | damaged nuclei with fluorescence focus visible at the illuminated place or in its direct proximity (HeLa 21-4 cells [2]) [%] |
| --- | --- | --- | --- |
| CC[C@@]1(O)C(=O)OCc2c1cc1n(c2=O)Cc2cc3c(CN(C)C)c(O)ccc3nc2-1 [Tpt, topotecan] | approximately 18% | 16.39±4.92 |  |
| CC[n+]1c(-c2ccccc2)c2cc(N)ccc2c2ccc(N)cc21 [ethidium bromide] |  |  | 90 |
